From patent US12023333B2, “Phenyl-sulfamoyl.benzoyc acids as ERAP1 modulators” (GREY WOLF THERAPEUTICS LIMITED, priority 2019, dated 2024)

Biological target: T1, Purified ERAP1(37-941)-10His (ERAP1) (Homo sapiens, UniProt Q9NZ08)
T1 construct: Purified ERAP1(37-941)-10His (ERAP1); 10His (C)
Assay: ERAP1 mediated hydrolysis of an amide substrate measured in a biochemical system (10-mer decapeptide substrate)
Details: 10-mer substrate, 23° C. for 1 h, excitation 279 nm and emission 355 nm; read-out: IC50 vs Decapeptide WRVYEKC(Dnp)ALK-acid (where Dnp is Dinitrophenyl maleimide) (10-mer)
Method: Biological Assay 1: ERAP1 Mediated Hydrolysis of an Amide Substrate Measured in a Biochemical System
1× Assay buffer (AB): 25 mM Bis-tris propane, 0.05% w/v Hydroxypropylmethylcellulose pH 7.75 made with Optima grade water
Decapeptide WRVYEKC(Dnp)ALK-acid (where Dnp is Dinitrophenyl maleimide) (10-mer) L-Leucine 7-amido-4-methylcoumarin (L-AMC)
12.5 μL ERAP1 enzyme in 1×AB was combined with 250 nL test compound in DMSO. 12.5 μL of either 240 μM L-AMC in 1×AB or 100 μM 10-mer in 1×AB was added to the reaction and incubated at 23° C. for 1 h. For detection, plates were read at excitation 365 nm and emission 442 nm (L-AMC) or excitation 279 nm and emission 355 nm (10-mer). Compound IC50 was determined using a 4 parameter equation.

T1 sequence (Q9NZ08 37-941): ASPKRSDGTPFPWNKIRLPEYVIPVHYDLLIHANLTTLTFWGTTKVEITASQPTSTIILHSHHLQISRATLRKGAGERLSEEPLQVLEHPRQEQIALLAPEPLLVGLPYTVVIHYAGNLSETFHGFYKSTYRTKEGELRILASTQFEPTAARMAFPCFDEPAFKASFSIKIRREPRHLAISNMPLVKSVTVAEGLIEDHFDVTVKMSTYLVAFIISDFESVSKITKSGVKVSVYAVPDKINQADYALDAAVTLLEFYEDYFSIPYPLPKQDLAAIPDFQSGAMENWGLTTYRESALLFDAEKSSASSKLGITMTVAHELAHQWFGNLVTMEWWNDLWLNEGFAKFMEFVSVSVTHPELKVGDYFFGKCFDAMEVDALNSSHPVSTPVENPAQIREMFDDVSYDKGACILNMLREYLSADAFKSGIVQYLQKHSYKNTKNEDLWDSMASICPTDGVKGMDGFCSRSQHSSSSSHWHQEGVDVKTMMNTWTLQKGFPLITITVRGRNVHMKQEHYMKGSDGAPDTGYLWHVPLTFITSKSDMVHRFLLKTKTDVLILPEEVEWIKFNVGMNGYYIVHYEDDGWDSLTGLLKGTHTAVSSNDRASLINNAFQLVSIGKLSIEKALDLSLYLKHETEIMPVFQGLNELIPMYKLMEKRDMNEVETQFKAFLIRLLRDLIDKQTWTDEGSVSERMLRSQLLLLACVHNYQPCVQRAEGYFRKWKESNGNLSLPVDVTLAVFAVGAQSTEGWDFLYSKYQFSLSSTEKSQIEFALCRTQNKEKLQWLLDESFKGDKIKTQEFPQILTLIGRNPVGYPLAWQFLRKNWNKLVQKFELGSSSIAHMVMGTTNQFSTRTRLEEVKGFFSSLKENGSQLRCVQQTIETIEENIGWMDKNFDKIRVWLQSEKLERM

IC50, < 500 nM:
CCc1ccc(C(=O)O)cc1S(=O)(=O)Nc1cc(S(C)(=O)=O)ccc1-c1cccnc1 [Example 54, 4-ethyl-3-(N-(5-(methylsulfonyl)-2-(pyridin-3-yl)phenyl)sulfamoyl) benzoic acid]
O=C(O)c1ccc(C2CC2)c(S(=O)(=O)Nc2cc(C(F)(F)F)ccc2-c2ccccc2)c1 [Example 55, 4-cyclopropyl-3-(N-(4-(trifluoromethyl)-[1,1′-biphenyl]-2-yl)sulfamoyl) benzoic acid]
CCc1ccc(C(=O)O)cc1S(=O)(=O)Nc1cc(-n2cnnn2)ccc1-c1cccc(C#N)c1 [Example 56, 3-(N-(3′-cyano-4-tetrazol-1-yl-[1,1′-biphenyl]-2-yl)sulfamoyl)-4-ethylbenzoic acid]
CCc1ccc(C(=O)O)cc1S(=O)(=O)Nc1cc(C#N)ccc1-c1cccnc1 [Example 57, 3-(N-(5-cyano-2-(pyridin-3-yl)phenyl)sulfamoyl)-4-ethylbenzoic acid]
CCc1ccc(C(=O)O)cc1S(=O)(=O)Nc1cc(C(F)(F)F)ccc1-c1ccc(C)s1 [Example 58, 4-ethyl-3-(N-(2-(5-methylthiophen-2-yl)-5-(trifluoromethyl)phenyl)sulfamoyl)benzoic acid]
CCc1ccc(C(=O)O)cc1S(=O)(=O)Nc1cc(C(F)(F)F)ccc1-c1ccc(OC)s1 [Example 59, 4-ethyl-3-(N-(2-(5-methoxythiophen-2-yl)-5-(trifluoromethyl)phenyl)sulfamoyl)benzoic acid]
COc1ccc(C(=O)O)cc1S(=O)(=O)Nc1cc(C#N)ccc1-c1ccccc1 [Example 60, 3-(N-(4-cyano-[1,1′-biphenyl]-2-yl)sulfamoyl)-4-methoxybenzoic acid]
COc1ccc(C(=O)O)cc1S(=O)(=O)Nc1cc(C#N)ccc1-c1cccc(F)c1 [Example 61, 3-(N-(4-cyano-3′-fluoro-[1,1′-biphenyl]-2-yl)sulfamoyl)-4-methoxybenzoic acid]
COc1ccc(C(=O)O)cc1S(=O)(=O)Nc1cc(C#N)ccc1-c1cccs1 [Example 62, 3-(N-(5-cyano-2-(thiophen-2-yl)phenyl)sulfamoyl)-4-methoxybenzoic acid]
COc1ccc(C(=O)O)cc1S(=O)(=O)Nc1cc(-c2nnn[nH]2)ccc1-c1ccccc1 [Example 63, 3-(N-(4-(tetrazol-5-yl)-[1,1′-biphenyl]-2-yl)sulfamoyl)-4-methoxybenzoic acid]
COc1ccc(C(=O)O)cc1S(=O)(=O)Nc1cc(-c2nnn[nH]2)ccc1-c1cccc(F)c1 [Example 64, 3-(N-(3′-fluoro-4-(tetrazol-5-yl)-[1,1′-biphenyl]-2-yl)sulfamoyl)-4-methoxybenzoic acid]
COc1ccc(C(=O)O)cc1S(=O)(=O)Nc1cc(-c2nnn[nH]2)ccc1-c1cccs1 [Example 65, 3-(N-(5-(tetrazol-5-yl)-2-(thiophen-2-yl)phenyl)sulfamoyl)-4-methoxybenzoic acid]
CCc1ccc(C(=O)O)cc1S(=O)(=O)Nc1cc(C(F)(F)F)ccc1-c1ncccc1F [Example 66, 4-ethyl-3-(N-(2-(3-fluoropyridin-2-yl)-5-(trifluoromethyl)phenyl)sulfamoyl)benzoic acid]
CCc1ccc(C(=O)O)cc1S(=O)(=O)Nc1cc(C(F)(F)F)ccc1-c1ccc(F)s1 [Example 67, 4-ethyl-3-(N-(2-(5-fluorothiophen-2-yl)-5-(trifluoromethyl)phenyl)sulfamoyl)benzoic acid]
CCc1ccc(C(=O)O)cc1S(=O)(=O)Nc1cc(C(F)(F)F)ccc1-c1ncccn1 [Example 68, 4-ethyl-3-(N-(2-(pyrimidin-2-yl)-5-(trifluoromethyl)phenyl)sulfamoyl)benzoic acid]
CCc1ccc(C(=O)O)cc1S(=O)(=O)Nc1cc(C(F)(F)F)ccc1-c1ccc[nH]1 [Example 69, 3-(N-(2-(pyrrol-2-yl)-5-(trifluoromethyl)phenyl)sulfamoyl)-4-ethylbenzoic acid]
CCc1ccc(C(=O)O)cc1S(=O)(=O)Nc1cc(C(F)(F)F)ccc1-c1ccc(Cl)s1 [Example 70, 3-(N-(2-(5-chlorothiophen-2-yl)-5-(trifluoromethyl)phenyl)sulfamoyl)-4-ethylbenzoic acid]
CCc1ccc(C(=O)O)cc1S(=O)(=O)Nc1cc(S(C)(=O)=O)ccc1-c1ccccn1 [Example 71, 4-ethyl-3-(N-(5-(methylsulfonyl)-2-(pyridin-2-yl)phenyl)sulfamoyl)benzoic acid]
O=C(O)c1ccc(C2CC2)c(S(=O)(=O)Nc2cc(C(F)(F)F)ccc2-c2ccccn2)c1 [Example 72, 4-cyclopropyl-3-(N-(2-(pyridin-2-yl)-5-(trifluoromethyl)phenyl)sulfamoyl)benzoic acid]
CCc1ccc(C(=O)O)cc1S(=O)(=O)Nc1cc(C(F)(F)F)ccc1-c1cccn1C [Example 73, 4-ethyl-3-(N-(2-(1-methyl-pyrrol-2-yl)-5-(trifluoromethyl)phenyl)sulfamoyl)benzoic acid]
CS(=O)(=O)c1ccc(-c2cccs2)c(NS(=O)(=O)c2cc(C(=O)O)ccc2C2CC2)c1 [Example 74, 4-cyclopropyl-3-(N-(5-(methylsulfonyl)-2-(thiophen-2-yl)phenyl)sulfamoyl) benzoic acid]
N#Cc1ccc(-c2cccs2)c(NS(=O)(=O)c2cc(C(=O)O)ccc2C2CC2)c1 [Example 75, 3-(N-(5-cyano-2-(thiophen-2-yl)phenyl)sulfamoyl)-4-cyclopropylbenzoic acid]
O=C(O)c1ccc(C2CC2)c(S(=O)(=O)Nc2cc(C(F)(F)F)ccc2-c2cccs2)c1 [Example 76, 4-cyclopropyl-3-(N-(2-(thiophen-2-yl)-5-(trifluoromethyl)phenyl)sulfamoyl)benzoic acid]
CCc1ccc(C(=O)O)cc1S(=O)(=O)Nc1cc(C(F)(F)F)ccc1-c1ccc(C#N)s1 [Example 77, 3-(N-(2-(5-cyanothiophen-2-yl)-5-(trifluoromethyl)phenyl)sulfamoyl)-4-ethylbenzoic acid]
COc1ccc(C(=O)O)cc1S(=O)(=O)Nc1cc(S(C)(=O)=O)ccc1-c1cccs1 [Example 78, 4-methoxy-3-(N-(5-(methylsulfonyl)-2-(thiophen-2-yl)phenyl)sulfamoyl) benzoic acid]
COc1ccc(C(=O)O)cc1S(=O)(=O)Nc1cc(C(F)(F)F)ccc1-c1ccc(C)s1 [Example 79, 4-methoxy-3-(N-(2-(5-methylthiophen-2-yl)-5-(trifluoromethyl)phenyl)sulfamoyl)benzoic acid]
CCc1ccc(C(=O)O)cc1S(=O)(=O)Nc1cc(C#N)ccc1-c1ccc(C)s1 [Example 80, 3-(N-(5-cyano-2-(5-methylthiophen-2-yl)phenyl)sulfamoyl)-4-ethylbenzoic acid]
COc1ccc(C(=O)O)cc1S(=O)(=O)Nc1cc(C#N)ccc1-c1ccc(C)s1 [Example 81, 3-(N-(5-cyano-2-(5-methylthiophen-2-yl)phenyl)sulfamoyl)-4-methoxybenzoic acid]
CS(=O)(=O)c1ccc(-c2ccccn2)c(NS(=O)(=O)c2cc(C(=O)O)ccc2C2CC2)c1 [Example 82, 4-cyclopropyl-3-(N-(5-(methylsulfonyl)-2-(pyridin-2-yl)phenyl)sulfamoyl) benzoic acid]
